From the supplement of paper PMC10307832

What was measured:
Experiment in all cases: relative viability (nuclei count vs DMSO), 5 days (fraction); higher = more cells survive
CX-5461 + Lapatinib = compound: Cc1cnc(CNC(=O)c2c(=O)c3ccc(N4CCCN(C)CC4)nc3n3c2sc2ccccc23)cn1 [CX-5461] + CS(=O)(=O)CCNCc1ccc(-c2ccc3ncnc(Nc4ccc(OCc5cccc(F)c5)c(Cl)c4)c3c2)o1 [Lapatinib] (partner 2 µM)
Procedure, shortened: (§1)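 Relative viability is defined as nuclei in treated wells over nuclei in vehicle wells. Duplicate plates were run and medians reported. Lung cancer cell lines in 1536-well plates were dosed by pin tool one day after seeding, with one drug or with a fixed anchor-drug dose plus five library-drug doses (not always all listed) in √10 steps, and nuclei were counted after 5 days.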

CX-5461 + Olaparib = compound: Cc1cnc(CNC(=O)c2c(=O)c3ccc(N4CCCN(C)CC4)nc3n3c2sc2ccccc23)cn1 [CX-5461] + O=C(c1cc(Cc2n[nH]c(=O)c3ccccc23)ccc1F)N1CCN(C(=O)C2CC2)CC1 [Olaparib] (partner 8 µM)
Procedure, shortened: as §1

IMD-0354 + Tozasertib = compound: O=C(Nc1cc(C(F)(F)F)cc(C(F)(F)F)c1)c1cc(Cl)ccc1O [IMD-0354] + Cc1cc(Nc2cc(N3CCN(C)CC3)nc(Sc3ccc(NC(=O)C4CC4)cc3)n2)n[nH]1 [Tozasertib] (partner 0.1 µM)
Procedure, shortened: as §1

IMD-0354 + Decitabine = compound: O=C(Nc1cc(C(F)(F)F)cc(C(F)(F)F)c1)c1cc(Cl)ccc1O [IMD-0354] + Nc1ncn([C@H]2C[C@H](O)[C@@H](CO)O2)c(=O)n1 [Decitabine] (partner 2 µM)
Procedure, shortened: as §1

Cell Line	relative viability (CX-5461 + Lapatinib; first compound 0.01 µM)	relative viability (CX-5461 + Lapatinib; first compound 0.03162 µM)	relative viability (CX-5461 + Lapatinib; first compound 0.1 µM)	relative viability (CX-5461 + Lapatinib; first compound 0.3162 µM)	relative viability (CX-5461 + Lapatinib; first compound 1 µM)	relative viability (CX-5461 + Olaparib; first compound 0.01 µM)	relative viability (CX-5461 + Olaparib; first compound 0.03162 µM)	relative viability (CX-5461 + Olaparib; first compound 0.1 µM)	relative viability (CX-5461 + Olaparib; first compound 0.3162 µM)	relative viability (CX-5461 + Olaparib; first compound 1 µM)	relative viability (IMD-0354 + Tozasertib; first compound 0.04 µM)	relative viability (IMD-0354 + Tozasertib; first compound 0.1265 µM)	relative viability (IMD-0354 + Tozasertib; first compound 0.4 µM)	relative viability (IMD-0354 + Tozasertib; first compound 1.265 µM)	relative viability (IMD-0354 + Tozasertib; first compound 4 µM)	relative viability (IMD-0354 + Decitabine; first compound 0.04 µM)	relative viability (IMD-0354 + Decitabine; first compound 0.1265 µM)	relative viability (IMD-0354 + Decitabine; first compound 0.4 µM)	relative viability (IMD-0354 + Decitabine; first compound 1.265 µM)	relative viability (IMD-0354 + Decitabine; first compound 4 µM)
NCI-H2085	0.806	0.718	0.667	0.324	0.615	0.772	0.783	0.845	0.787	0.736	0.941	0.797	0.681	0.459	0.405	0.59	0.516	0.551	0.421	0.337
NCI-H2087	1.13	1.18	1.18	0.407	0.507	0.683	0.68	0.583	0.602	0.471	0.273	0.228	0.167	0.167	0.126	0.258	0.276	0.188	0.111	0.0967
NCI-H2126	0.786	0.803	0.727	0.622	0.72	0.956	0.974	0.924	0.968	0.863	0.915	0.942	0.573	0.348	0.294	0.526	0.59	0.641	0.594	0.306
NCI-H2170	0.305	0.261	0.283	0.207	0.296	0.613	0.566	0.645	0.599	0.609	0.788	0.779	0.377	0.624	0.226	0.467	0.457	0.37	0.443	0.396
NCI-H2347	0.941	0.931	0.963	0.524	0.778	0.57	0.648	0.606	0.477	0.517	0.767	0.513	0.563	0.505	0.233	0.546	0.653	0.483	0.491	0.323
NCI-H2405	1.18	1.07	1.18	0.541	0.808	0.9	0.891	0.866	0.792	0.639	0.742	0.727	0.732	0.346	0.322	0.883	0.801	0.636	0.294	0.347
NCI-H3122	1.01	0.992	0.897	1	0.854	0.695	0.653	0.615	0.667	0.617	0.468	0.421	0.248	0.139	0.119	0.46	0.455	0.408	0.469	0.227
PC-3 [JPC-3]	0.453	0.443	0.464	0.421	0.473	1.15	–	1.08	1.15	0.898	1	0.707	0.572	0.567	0.312	0.984	0.813	0.756	0.481	0.336
PC-14	0.328	0.457	0.304	0.104	0.337	0.241	0.252	0.125	0.213	0.0738	0.675	0.61	0.353	0.312	0.076	0.249	0.22	0.142	0.0934	0.0785
RERF-LC-KJ	0.785	0.701	0.877	0.637	0.765	0.785	0.827	0.619	0.848	0.415	0.565	0.644	0.411	0.274	0.265	0.901	0.64	0.493	0.183	0.166
SK-LU-1	0.948	0.837	0.852	0.96	0.535	0.423	0.467	0.442	0.473	0.335	0.308	0.349	0.304	0.2	0.189	0.775	0.657	0.441	0.264	0.328
SK-MES-1	0.431	0.474	0.454	0.512	0.403	0.706	0.738	0.508	0.641	0.246	1.14	0.873	0.543	0.287	0.215	0.387	0.386	0.306	0.176	0.205
SW 1573	1.2	1.26	0.989	0.691	0.546	0.395	0.468	0.29	0.438	0.141	0.182	0.16	0.175	0.0971	0.0737	0.814	0.588	0.245	0.115	0.0911
